Results: US7749972B2, “1-substituted-7-(β-D-glycopyranosyloxy)(aza)indole compound and pharmaceutical containing the same” (Kissei Pharmaceutical Co., Ltd., priority 2005, dated 2010)

Key:
human SGLT1 = target: T1, human SGLT1 (Homo sapiens, UniProt P13866); assay: Inhibition of methyl-α-D-glucopyranoside (α-MG) uptake in COS-7 cells expressing human SGLT1; type: cell-based; settings: COS-7 cells transiently expressing human SGLT1; 1 mM 14C-α-MG uptake, 37° C., 1 hour
T1 construct: expressed in transfected cells; host or cells: COS-7 cells, transient lipofection (Lipofectamine-2000), vector pcDNA3.1(-)
T1 sequence (P13866 1-664): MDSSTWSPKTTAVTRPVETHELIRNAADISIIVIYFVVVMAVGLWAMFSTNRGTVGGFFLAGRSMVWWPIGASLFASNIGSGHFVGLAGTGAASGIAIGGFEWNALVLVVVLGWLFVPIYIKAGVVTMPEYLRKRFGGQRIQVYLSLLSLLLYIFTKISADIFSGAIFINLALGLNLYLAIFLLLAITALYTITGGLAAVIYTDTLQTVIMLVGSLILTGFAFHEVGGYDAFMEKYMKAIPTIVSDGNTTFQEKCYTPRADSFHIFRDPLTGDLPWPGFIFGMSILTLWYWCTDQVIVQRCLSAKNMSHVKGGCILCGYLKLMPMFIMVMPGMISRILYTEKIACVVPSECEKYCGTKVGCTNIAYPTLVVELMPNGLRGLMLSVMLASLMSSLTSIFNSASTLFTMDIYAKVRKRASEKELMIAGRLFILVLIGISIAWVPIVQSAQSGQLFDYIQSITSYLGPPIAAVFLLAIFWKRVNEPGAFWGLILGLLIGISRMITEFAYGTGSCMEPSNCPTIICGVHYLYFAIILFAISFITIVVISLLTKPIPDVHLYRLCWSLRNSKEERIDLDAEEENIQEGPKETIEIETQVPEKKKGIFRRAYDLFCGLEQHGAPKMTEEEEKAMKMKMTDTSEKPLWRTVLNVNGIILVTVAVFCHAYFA
Procedure: (§1) Assay for Inhibitory Effects on Human SGLT Activity
1) Cloning and Construction of the Vector Expressing Human SGLT1
(§2) The cDNA library was prepared for PCR amplification by reverse transcription from total RNA derived from human small intestine (Ori gene) using oligo-dT as a primer. Using this cDNA library as a template, the DNA fragment coding 1 to 2005 bp of human SGLT1 (ACCESSION: M24847), which was reported by Hediger et al., was amplified by PCR method and inserted into the multi-cloning site of pcDNA3.1(−) (Invitrogen). The DNA sequence inserted was perfectly matched to the previously reported sequence.
(§3) 3) Preparation of the Cells Expressing Human SGLT1 or SGLT2 […]
(§4) A mixture of non-labeled (Sigma) and ^14C-labeled α-MG (Amersham Pharmacia Biotech) was added to the uptake buffer (pH 7.4; containing 140 mM sodium chloride, 2 mM potassium chloride, […] calcium chloride, 1 mM magnesium chloride, 10 mM 2-[4-(2-hydroxyethyl)-1-piperazinyl]ethane sulfonic acid and 5 mM tris(hydroxymethyl)aminomethane) at the final concentration of 1 mM. […] Radioactivity was measured by means of micro-scintillation counter TopCount (Packard). One hundred % was set to the difference between the uptake in the control group and the basal uptake, and the uptake of methyl α-D-glucopyranoside at each drug concentration was calculated. […]

human SGLT2 = target: T2, human SGLT2 (Homo sapiens, UniProt P31639); assay: Inhibition of methyl-α-D-glucopyranoside (α-MG) uptake in COS-7 cells expressing human SGLT2; type: cell-based; settings: COS-7 cells transiently expressing human SGLT2; 1 mM 14C-α-MG uptake, 37° C., 1 hour
T2 construct: expressed in transfected cells; host or cells: COS-7 cells, transient lipofection (Lipofectamine-2000), vector pcDNA3.1(-)
T2 sequence (P31639 1-672): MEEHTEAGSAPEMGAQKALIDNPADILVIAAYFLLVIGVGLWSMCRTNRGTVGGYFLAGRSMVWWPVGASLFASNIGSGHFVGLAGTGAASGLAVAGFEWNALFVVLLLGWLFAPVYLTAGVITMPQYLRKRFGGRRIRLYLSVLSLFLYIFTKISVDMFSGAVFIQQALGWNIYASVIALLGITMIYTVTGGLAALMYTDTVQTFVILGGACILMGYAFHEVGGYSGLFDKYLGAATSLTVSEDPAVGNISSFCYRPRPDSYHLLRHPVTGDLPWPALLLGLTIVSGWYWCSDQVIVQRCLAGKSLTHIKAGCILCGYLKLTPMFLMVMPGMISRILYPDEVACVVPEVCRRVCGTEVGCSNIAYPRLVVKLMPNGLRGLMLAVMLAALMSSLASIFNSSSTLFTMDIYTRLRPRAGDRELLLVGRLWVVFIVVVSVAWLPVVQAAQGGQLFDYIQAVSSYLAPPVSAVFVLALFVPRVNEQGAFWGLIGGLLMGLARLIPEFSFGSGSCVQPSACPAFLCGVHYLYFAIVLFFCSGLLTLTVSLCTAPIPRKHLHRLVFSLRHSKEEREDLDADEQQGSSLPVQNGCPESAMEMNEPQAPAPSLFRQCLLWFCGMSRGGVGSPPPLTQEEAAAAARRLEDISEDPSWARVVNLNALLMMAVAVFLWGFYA
Procedure: as §1
2) Cloning and Construction of the Vector Expressing Human SGLT2
as §2, with “human kidney” for “human small intestine”, “coding 2” for “coding 1”, “to 2039” for “to 2005”, “human SGLT2” for “human SGLT1”, “(ACCESSION: M95549, M95299),” for “(ACCESSION: M24847),”, “by R. G. Wells” for “by Hediger”
as §3, §4

Cc1ccc(Cn2ccc3cccc(O[C@@H]4O[C@H](CO)[C@@H](O)[C@H](O)[C@H]4O)c32)cc1 [Example 1, 7-(1-β-Glucopyranosyloxy)-1-(4-methylbenzyl)-1H-indole]
IC50 (human SGLT1): 235 nM

OC[C@H]1O[C@@H](Oc2cccc3ccn(CCc4ccccc4)c23)[C@H](O)[C@@H](O)[C@@H]1O [Example 4]
IC50 (human SGLT2): 66 nM

OC[C@H]1O[C@@H](Oc2cccc3ccn(CCc4ccc(O)cc4)c23)[C@H](O)[C@@H](O)[C@@H]1O [Example 7, 7-(β-D-Glucopyranosyloxy)-1-[2-(4-hydroxyphenyl)ethyl]-1H-indole]
IC50 (human SGLT2): 16 nM
IC50 (human SGLT1): 52 nM
